Test results reported in ChEMBL document CHEMBL1155087, “Discovery of novel hydroxy-thiazoles as HIF-alpha prolyl hydroxylase inhibitors: SAR, synthesis, and modeling evaluation” (Bioorg Med Chem Lett, 2008).

Target: Egl nine homolog 1 (Homo sapiens, UniProt Q9GZT9)
Experiment: Inhibition of human PHD2 assessed as hydroxylation of Pro564 in human HIF-1alpha by TR-FRET assay

Sequence of Egl nine homolog 1 (Q9GZT9 whole entry): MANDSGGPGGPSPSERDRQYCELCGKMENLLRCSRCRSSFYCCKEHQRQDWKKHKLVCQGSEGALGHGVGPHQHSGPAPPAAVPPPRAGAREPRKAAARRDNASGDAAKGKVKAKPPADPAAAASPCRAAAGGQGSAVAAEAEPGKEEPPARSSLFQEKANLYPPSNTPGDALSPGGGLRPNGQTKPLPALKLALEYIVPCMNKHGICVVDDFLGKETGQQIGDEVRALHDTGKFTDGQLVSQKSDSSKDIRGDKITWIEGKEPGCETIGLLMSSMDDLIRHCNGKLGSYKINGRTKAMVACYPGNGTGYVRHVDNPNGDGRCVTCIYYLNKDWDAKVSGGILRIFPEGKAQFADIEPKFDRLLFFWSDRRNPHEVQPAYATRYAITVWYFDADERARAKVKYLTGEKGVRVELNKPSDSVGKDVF

Structure (SMILES) | IC50 [µM]
CC(C)(C(=O)O)c1cs/c(=N/C(=O)CS(=O)(=O)c2ccccc2)n1O | > 40
O=C(O)Cc1csc(NC(=O)CS(=O)(=O)c2ccccc2)n1 | > 40
CCOC(=O)Cc1cs/c(=N/C(=O)CS(=O)(=O)c2ccccc2)n1O | > 40

Next, values leading:

IC50 [µM] | Structure (SMILES)
> 40 | CCOC(=O)Cc1csc(NC(=O)CS(=O)(=O)c2ccccc2)n1
> 40 | O=C(O)Cc1cs/c(=N/C(=O)CCc2ccccc2)n1O
